This note sets out measurements from patent US20030152646A1, “Method of treating conditions caused by activated microglia” (priority 2001, published 2003).

Entries after “also recorded” stand apart in the source; their conditions may differ.

Series [1] concerns nitric oxide (NO) production. The series can be described thus: Nitrite measurement (Griess reaction) in LPS-treated microglia-neuron co-cultures. Type of series: cell-based, rat. Conditions: for effect on nitrite accumulation / NO production: 100 ng/ml LPS, 48 hours, same concentrations as for neuron survival.
Another series concerns TNF-α secretion. The series can be described thus: TNF-α Elisa of culture supernatants of LPS-treated microglia-neuron co-cultures. The class given is cell-based, rat. Conditions: 100 ng/ml LPS, 48 hours; for effect on TNF-α secretion: PEN 500 μM, THA 200 μM. The protocol: Levels of secreted TNF-α in culture supernatants were determined by an enzyme-linked immuno-sorbent assay (Elisa) kit following manufacturer's instructions (BioSource International, Camarillo, Calif.).

The next series concerns microglia cells. As to the kind of experiment: Superoxide generation by LPS-activated microglia (EPR, DMPO spin trap). Type of series: cell-based, rat. Conditions: 100 ng/ml LPS. The protocol: To monitor the generation of superoxide by activated microglia, Electron Paramagnetic Resonance (EPR) measurements were performed with 5,5-dimethyl-1-pyrroline-N-oxide (DMPO) as a superoxide spin trap. To confirm that the EPR signal is caused by superoxide, either superoxide dismutase (SOD) or DMSO, which competes with DMPO for hydroxyl radical, were added to the microglia cells together with LPS.
For EPR measurements, microglia cells (100,000) with or without LPS treatment were incubated in 200 μl culture medium containing 120 mm DMPO. After 15 minutes, the medium was removed and analyzed by EPR. EPR spectra were recorded on a Bruker ECS106 spectrometer with the following settings: receiver gain: 5×10^5; microwave power: 20 mW; microwave frequency: 9.81 GHz; modulation amplitude: 1 G; time constant: 1.3 seconds; scan time: 87 seconds; scan width: 80 G. The DMPO-OH signal generated from […] were quantified by comparison with TEMPOL standard after doubly integration of both signals. All scans shown are an accumulation of 7 scans.

For a further series, the system named is primary cortical neurons. As to the kind of experiment: Neuron survival of primary cortical neurons treated with SIN-1. The settings on record: 50 μM SIN-1, 2 μM FeTMPyP, 48 hr. The class given is cell-based, rat. The protocol:
To validate the specificity and effectiveness of the peroxynitrite decomposition catalyst FeTMPyP, this catalyst was further tested with neuron cultures treated with SIN 1, an exogenous NO and superoxide donor that, consequently, generates peroxynitrite under physiological conditions [Hogg, 1992]. Primary cortical neurons were treated with 50 μM SIN-1 in the presence or absence of 2 μM FeTMPyP for 48 hr.
Neuron cultures were derived from […] (embryonic day 17) Fishes 344 rat cerebral cortices detailed previously (Banker and Goslin, 1988; Rozovsky et al., 1994) and plated at 5×10^4 viable cells/well is poly-D-lysine (Sigma) coated 24-well plates (Costar). […]
Following treatment, culture inserts containing microglia were removed and neurons were stained with 10 jig/ml fluorescein diacetate (FDA, Sigma) for 10 min. […] Since neuron deaths occur primarily in the region directly underneath the microglia-containing culture inserts (see FIG. 6D), for quantification, eight images at the center of each well were taken with a Nikon TE300 fluorescent microscope and analyzed with the IP Lab imaging software (version 3.54, Scanalytics, Fairfax, Va.). Viable neurons were quantified by the area covered by green fluorescence, after the establishment of a linear relationship between the numbers of stained cells and the green fluorescent area. […]

Series [2] relates to microglia-neuron co-cultures. Conditions: 100 ng/ml LPS.
For series [3], the system named is nitric oxide (NO) production. The series can be described thus: Nitrite measurement in microglia-neuron co-cultures treated with Aβ1-42 and interferon γ. The settings on record: 5 μM Aβ1-42 + 10 ng/ml interferon γ, 48 hour; FeTMPyP 2 μM. The class given is cell-based, rat. On the procedure: Nitric oxide (NO) production was determined indirectly through the assay of nitrite (NO2), a stable metabolite of NO, based on the Griess reaction (Huygen, 1970; Green et al., 1982; Ding et al., 1988). Briefly, a 50 μl aliquot of conditioned media was mixed with an equal volume of Griess reagent (0.1% N-(1-naphthyl)ethylenediamine dihydrochloride, 1% sufanilamide, and 2.5% phosphoric acid, all from Sigma), and incubated for 10 min at 22° C. The absorbance was read at 550 nm on a microtiter plate reader (Spectra MAX 250, Molecular Devices, Sunnyvale, Calif.). Nitrite concentrations were calculated from a standard curve of NaNO2 (Sigma) ranging from 0 to 100 μM. Background NO2 was subtracted from the experimental values.

The next series has as its system neurons. The series can be described thus: TUNEL staining of neurons from Aβ1-42-treated microglia-neuron co-cultures. Type of series: cell-based, rat. The settings on record: 5 μM Aβ1-42 + 10 ng/ml interferon γ, 24 hours. The protocol:
DNA cleavage in apoptotic nuclei was detected with In Situ Cell Death Detection Kit as described by the manufacturer (Roche Molecular Biochemicals, Indianapolis, Ind.). Briefly, cells were fixed with paraformaldehyde (4% in PBS, pH 7.4) and permeablized (0.1% Triton X-100 in 0.1% sodium citrate). After incubation for 1 hr at 37° C. in terminal deoxynucleotidyl transferase (TdT) reaction mixture, signals were visualized under a fluorescence microscope (excitation/emission wavelengths: 450-500 nm/515-565 nm). Samples were further blotted with alkaline phosphatase-conjugated anti-fluorescein antibody. Following color reaction, samples were analyzed under a light microscope.

The subject of series [4] is microglia-neuron co-cultures.

In the case of `CC(=O)CCCCn1c(=O)c2c(ncn2C)n(C)c1=O` [pentoxifylline], the “effect on nitrite accumulation / NO production” value in series [1] is given as “little effect; also recorded: did not decrease nitrite/NO generation”. Moreover, the “effect on TNF-α secretion” value with TNF-α secretion is “inhibits”.

Lipopolysaccharide [LPS]: the “peak of superoxide generation” value in the series on microglia cells came out at 12 h. In series [1], the “beginning of nitrite generation” value is 6 h and the “peak of nitrite generation” value was “approximately 14 hours”.

As to `O=C1CCC(N2C(=O)c3ccccc3C2=O)C(=O)N1` (stereo not drawn) [thalidomide], the “effect on nitrite accumulation / NO production” value in series [1] was “inhibited”. In addition, the “effect on TNF-α secretion” value with TNF-α secretion is on record as “inhibited”.

Regarding `C[n+]1ccc(-c2c3nc(c(-c4cc[n+](C)cc4)c4ccc([n-]4)c(-c4cc[n+](C)cc4)c4nc(c(-c5cc[n+](C)cc5)c5ccc2[n-]5)C=C4)C=C3)cc1.[Cl-].[Fe+3]` [FeTMPyP, 5,10,15,20-Tetrakis(N methyl-4′-pyridyl)porphinato iron (III) chloride], the “protection of neurons against SIN-1 induced peroxynitrite toxicity” value with primary cortical neurons was “effectively protected”. The “effect on nitrite accumulation / NO production” value in series [1] is recorded as “without decreasing NO production”. Besides, the “optimal concentration of protective action against LPS-induced microglial neurotoxicity” value in series [2] (dose-dependent) was 2 µM. Besides, the “effect on nitric oxide production” value in series [3] is recorded as “without compromising nitric oxide production”.

In the case of `Cl.O=S(=O)([O-])c1ccc(-c2c3nc(c(-c4ccc(S(=O)(=O)O)cc4)c4ccc([nH]4)c(-c4ccc(S(=O)(=O)O)cc4)c4nc(c(-c5ccc(S(=O)(=O)O)cc5)c5ccc2[nH]5)C=C4)C=C3)cc1.[Fe]` [FeTPPS, 5,10,15,20-Tetrakis(4-sulfonatophenyl)prophyrinato iron (III) chloride], in series [1], the “effect on nitrite accumulation / NO production” value was “without decreasing NO production”.

With “Aβ1-42: amyloid β-peptide 1-42, aggregated (fibrillar), applied with 10 ng/ml interferon γ as priming factor”, in the series with neurons, the TUNEL-labeled neurons entry is “majority”. Also, in series [4], the death of neurons entry is reported as “over 80%” and the “neurotoxicity in the absence of microglia” value is listed as “did not result in neurotoxicity”.

For `CNC(=N)NCCC[C@H](N)C(=O)O` [L-NMMA, N^G-Monomethyl-L-arginine], the “effect on nitrite accumulation / NO production” value in series [1] was “completely blocked”. Also, the “reduction of TNF-α secretion” value in the series with TNF-α secretion (1 mM L-NMMA) is on record as 35%. The viable neurons in series [2] (48 hours, 1 mM L-NMMA added at the same time with LPS) is listed as 92.4±7.4 % of control.
